The term Ki denotes the equilibrium dissociation constant of an inhibitor or competing ligand from its target. One may read the inhibition as the change of the read-out against control, counted positive when it falls. As usually defined, the half-life is the time in which the quantity being followed falls by half. A word on the EC50: it is the midpoint of the concentration-response curve. By bioavailability is commonly meant dose-corrected exposure relative to a reference, in per cent. For orientation: AUC means concentration integrated over time. The Cmax is the maximum level reached in the sampled fluid or tissue.

The target in data set [1] is T1, Melanin-concentrating hormone receptor 1 (Homo sapiens, UniProt Q99705). Briefly: Binding affinity to MCHR1.
T1 sequence (Q99705 whole entry): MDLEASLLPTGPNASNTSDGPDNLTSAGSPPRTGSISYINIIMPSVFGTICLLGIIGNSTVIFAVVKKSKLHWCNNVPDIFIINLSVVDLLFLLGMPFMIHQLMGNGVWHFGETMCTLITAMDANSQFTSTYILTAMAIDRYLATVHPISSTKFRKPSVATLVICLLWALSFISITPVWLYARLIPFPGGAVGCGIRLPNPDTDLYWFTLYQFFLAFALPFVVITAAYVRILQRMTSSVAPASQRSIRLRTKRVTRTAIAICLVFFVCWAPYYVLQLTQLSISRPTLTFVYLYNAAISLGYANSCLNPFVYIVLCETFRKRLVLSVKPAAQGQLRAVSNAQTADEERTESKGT
Data set [2] addresses T2, 5-hydroxytryptamine receptor 1A (Homo sapiens) (UniProt P08908).
T2 sequence (whole entry): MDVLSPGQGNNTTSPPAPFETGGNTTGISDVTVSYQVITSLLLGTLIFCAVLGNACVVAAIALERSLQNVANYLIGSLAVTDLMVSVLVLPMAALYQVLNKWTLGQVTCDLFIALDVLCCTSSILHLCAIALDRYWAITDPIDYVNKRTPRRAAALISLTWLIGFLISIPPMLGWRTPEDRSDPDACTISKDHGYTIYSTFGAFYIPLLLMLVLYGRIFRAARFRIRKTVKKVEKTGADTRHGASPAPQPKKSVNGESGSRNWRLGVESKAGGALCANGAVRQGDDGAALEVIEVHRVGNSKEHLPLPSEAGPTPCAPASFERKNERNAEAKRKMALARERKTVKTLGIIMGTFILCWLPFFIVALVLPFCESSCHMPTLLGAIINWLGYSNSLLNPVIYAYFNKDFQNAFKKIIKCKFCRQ
Briefly: Inhibition of 5HT1A receptor at 10 uM.

In data set [3] the test system is Rattus norvegicus. Briefly: Reduction of body weight in high fat diet fed Sprague-Dawley rat at 30 mg/kg, po bid after 12 weeks. Further details: scale not given: the % may be the effect or the level left. The data set is classed as functional.
Data set [4] is described as follows: Half life in Sprague-Dawley rat at 5 mg/kg, iv or 30 mg/kg, po. The data set is classed as ADME, organism-based. The following applies: in vivo.
For data set [5], the target named is T3, Muscarinic acetylcholine receptor M2 (Homo sapiens) (UniProt P08172).
T3 sequence (whole entry): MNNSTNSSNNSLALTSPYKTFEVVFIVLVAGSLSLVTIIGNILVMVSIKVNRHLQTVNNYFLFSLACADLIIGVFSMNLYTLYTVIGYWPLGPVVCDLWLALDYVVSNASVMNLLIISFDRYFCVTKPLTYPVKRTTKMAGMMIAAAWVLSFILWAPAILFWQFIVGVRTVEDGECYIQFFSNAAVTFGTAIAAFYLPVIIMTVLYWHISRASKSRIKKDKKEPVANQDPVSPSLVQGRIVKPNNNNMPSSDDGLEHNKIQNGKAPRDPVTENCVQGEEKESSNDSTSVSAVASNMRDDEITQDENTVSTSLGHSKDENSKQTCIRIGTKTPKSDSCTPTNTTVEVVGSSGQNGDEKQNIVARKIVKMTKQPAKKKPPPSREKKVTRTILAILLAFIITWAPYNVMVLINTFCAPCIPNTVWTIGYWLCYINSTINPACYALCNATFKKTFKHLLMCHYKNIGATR
Briefly: Inhibition of muscarinic M2 receptor at 10 uM.

The subject of data set [6] is Rattus norvegicus. Briefly: Reduction of food intake in high fat diet fed Sprague-Dawley rat at 30 mg/kg, po bid. In kind it is functional. Further details: scale not given: the % may be the effect or the level left.
Data set [7] has as its target Sodium-dependent dopamine transporter (Homo sapiens) (UniProt Q01959). Briefly: Inhibition of DAT at 10 uM.
The species named for data set [8] is Rattus norvegicus. Briefly: Toxicity in high fat diet fed Sprague-Dawley rat after 12 weeks. The following applies: in vivo, 2016 h. In kind it is organism-based.
The nature of data set [9]: Ratio of drug level in brain to plasma in Sprague-Dawley rat after 5 mins. The following applies: brain and plasma, read-out: BPR. The data set is classed as ADME.
Data set [10] is described as follows: Clearance in Sprague-Dawley rat at 5 mg/kg, iv or 30 mg/kg, po. The following applies: in vivo. In kind it is ADME, organism-based.
For data set [11], the target named is Sodium-dependent serotonin transporter (Homo sapiens) (UniProt P31645). Briefly: Inhibition of SERT at 10 uM.
Chain of Sodium-dependent serotonin transporter (Homo sapiens) (P31645 whole entry, looked up): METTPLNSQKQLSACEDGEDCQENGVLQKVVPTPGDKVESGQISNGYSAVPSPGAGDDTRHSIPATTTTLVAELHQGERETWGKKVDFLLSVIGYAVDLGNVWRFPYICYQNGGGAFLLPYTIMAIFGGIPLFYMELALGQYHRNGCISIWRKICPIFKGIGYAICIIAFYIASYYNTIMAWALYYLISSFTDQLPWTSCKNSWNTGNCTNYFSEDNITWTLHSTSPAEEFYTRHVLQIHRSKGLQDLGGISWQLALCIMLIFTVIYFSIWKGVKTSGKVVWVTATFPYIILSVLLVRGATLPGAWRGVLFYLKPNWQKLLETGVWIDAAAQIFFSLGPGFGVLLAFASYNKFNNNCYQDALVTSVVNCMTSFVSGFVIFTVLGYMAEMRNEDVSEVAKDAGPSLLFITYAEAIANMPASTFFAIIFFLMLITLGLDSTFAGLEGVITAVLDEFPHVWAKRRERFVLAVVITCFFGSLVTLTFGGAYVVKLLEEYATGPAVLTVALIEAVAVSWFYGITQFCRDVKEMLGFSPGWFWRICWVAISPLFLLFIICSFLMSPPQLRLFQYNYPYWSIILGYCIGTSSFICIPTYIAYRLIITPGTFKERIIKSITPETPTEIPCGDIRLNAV
Data set [12] addresses D(3) dopamine receptor (Homo sapiens) (UniProt P35462). Briefly: Inhibition of dopamine D3 receptor at 10 uM.
Data set [13] has as its target T1, Melanin-concentrating hormone receptor 1. Briefly: Antagonist activity at MCHR1 by cAMP assay. The data set is classed as functional. For orientation: Cyclic AMP is a second messenger, typically raised through Gs and lowered through Gi signalling.
Data set [14] deals with T4, Alpha-2A adrenergic receptor (Homo sapiens) (UniProt P08913).
T4 sequence (whole entry): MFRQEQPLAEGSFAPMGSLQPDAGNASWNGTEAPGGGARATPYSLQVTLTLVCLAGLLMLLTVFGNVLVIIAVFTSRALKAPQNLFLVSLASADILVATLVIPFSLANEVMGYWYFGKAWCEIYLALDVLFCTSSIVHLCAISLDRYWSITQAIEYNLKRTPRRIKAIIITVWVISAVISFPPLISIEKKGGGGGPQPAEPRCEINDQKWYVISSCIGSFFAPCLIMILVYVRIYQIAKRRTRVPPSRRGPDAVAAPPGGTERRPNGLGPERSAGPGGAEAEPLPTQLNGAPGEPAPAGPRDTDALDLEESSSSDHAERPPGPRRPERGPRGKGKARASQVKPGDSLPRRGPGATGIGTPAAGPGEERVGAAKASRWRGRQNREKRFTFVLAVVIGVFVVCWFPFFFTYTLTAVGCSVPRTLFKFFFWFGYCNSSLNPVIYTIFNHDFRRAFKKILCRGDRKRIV
Briefly: Inhibition of adrenergic alpha2A receptor at 10 uM.

Data set [15] can be described thus: Oral bioavailability in Sprague-Dawley rat at 30 mg/kg. In kind it is ADME, organism-based. The settings on record: in vivo.
Data set [16] concerns the target Somatostatin receptor type 5 (Homo sapiens) (UniProt P35346). Briefly: Inhibition of SST5 receptor at 10 uM.
The nature of data set [17]: AUC in Sprague-Dawley rat plasma at 5 mg/kg, iv or 30 mg/kg, po. In kind it is ADME, organism-based.
Data set [18] in a line: Cmax in Sprague-Dawley rat at 5 mg/kg, iv or 30 mg/kg, po. The data set is classed as ADME, organism-based. The following applies: in vivo.
Data set [19] is described as follows: Volume of distribution at steady state in Sprague-Dawley rat at 5 mg/kg, iv or 30 mg/kg, po. The following applies: in vivo, read-out: Vdss. The data set is classed as ADME, organism-based.
The target in data set [20] is Sodium-dependent noradrenaline transporter (Homo sapiens) (UniProt P23975). Briefly: Inhibition of NET at 10 uM.
Chain of Sodium-dependent noradrenaline transporter (Homo sapiens) (P23975 whole entry): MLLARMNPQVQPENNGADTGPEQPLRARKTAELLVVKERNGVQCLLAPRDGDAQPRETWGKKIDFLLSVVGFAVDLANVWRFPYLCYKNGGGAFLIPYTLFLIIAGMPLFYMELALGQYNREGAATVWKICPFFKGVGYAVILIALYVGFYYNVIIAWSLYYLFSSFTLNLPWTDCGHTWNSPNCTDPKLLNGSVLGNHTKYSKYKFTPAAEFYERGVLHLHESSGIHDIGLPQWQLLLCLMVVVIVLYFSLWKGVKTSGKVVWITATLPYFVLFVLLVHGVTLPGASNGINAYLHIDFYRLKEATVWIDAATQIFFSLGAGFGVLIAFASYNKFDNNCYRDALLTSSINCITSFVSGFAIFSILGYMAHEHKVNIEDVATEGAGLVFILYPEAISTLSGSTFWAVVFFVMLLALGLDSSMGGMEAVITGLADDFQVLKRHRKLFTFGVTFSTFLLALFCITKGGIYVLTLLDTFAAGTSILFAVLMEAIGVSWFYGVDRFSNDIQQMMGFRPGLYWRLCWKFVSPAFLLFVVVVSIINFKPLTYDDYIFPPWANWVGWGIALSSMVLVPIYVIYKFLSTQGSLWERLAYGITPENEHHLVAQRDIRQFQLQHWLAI
The target in data set [21] is T5, 5-hydroxytryptamine receptor 2C (Homo sapiens) (UniProt P28335).
T5 sequence (whole entry): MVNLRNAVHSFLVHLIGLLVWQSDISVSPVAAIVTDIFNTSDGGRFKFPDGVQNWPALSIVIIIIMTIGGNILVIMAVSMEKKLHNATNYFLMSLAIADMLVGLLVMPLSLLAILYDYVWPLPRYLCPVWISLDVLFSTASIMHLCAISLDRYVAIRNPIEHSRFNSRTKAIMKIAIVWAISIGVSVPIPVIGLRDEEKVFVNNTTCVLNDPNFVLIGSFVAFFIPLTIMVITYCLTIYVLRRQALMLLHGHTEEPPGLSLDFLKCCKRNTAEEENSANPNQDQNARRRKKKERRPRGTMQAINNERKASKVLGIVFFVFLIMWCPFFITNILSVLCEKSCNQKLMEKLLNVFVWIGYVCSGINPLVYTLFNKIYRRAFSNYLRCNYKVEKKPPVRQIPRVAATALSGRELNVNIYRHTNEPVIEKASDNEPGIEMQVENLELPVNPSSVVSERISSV
Briefly: Inhibition of 5HT2C receptor at 10 uM.

Each structure is given as a SMILES string.

Chain of Somatostatin receptor type 5 (Homo sapiens) (P35346 whole entry): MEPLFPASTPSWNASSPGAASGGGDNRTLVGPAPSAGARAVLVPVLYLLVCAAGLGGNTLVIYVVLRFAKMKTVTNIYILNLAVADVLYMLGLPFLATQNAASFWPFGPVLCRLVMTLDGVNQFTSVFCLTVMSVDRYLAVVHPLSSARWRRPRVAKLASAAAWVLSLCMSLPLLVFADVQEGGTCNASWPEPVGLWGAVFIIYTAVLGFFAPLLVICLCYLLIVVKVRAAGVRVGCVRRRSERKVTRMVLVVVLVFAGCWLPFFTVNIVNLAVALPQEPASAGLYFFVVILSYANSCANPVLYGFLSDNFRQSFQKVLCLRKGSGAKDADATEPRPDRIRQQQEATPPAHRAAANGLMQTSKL
Chain of D(3) dopamine receptor (Homo sapiens) (P35462 whole entry): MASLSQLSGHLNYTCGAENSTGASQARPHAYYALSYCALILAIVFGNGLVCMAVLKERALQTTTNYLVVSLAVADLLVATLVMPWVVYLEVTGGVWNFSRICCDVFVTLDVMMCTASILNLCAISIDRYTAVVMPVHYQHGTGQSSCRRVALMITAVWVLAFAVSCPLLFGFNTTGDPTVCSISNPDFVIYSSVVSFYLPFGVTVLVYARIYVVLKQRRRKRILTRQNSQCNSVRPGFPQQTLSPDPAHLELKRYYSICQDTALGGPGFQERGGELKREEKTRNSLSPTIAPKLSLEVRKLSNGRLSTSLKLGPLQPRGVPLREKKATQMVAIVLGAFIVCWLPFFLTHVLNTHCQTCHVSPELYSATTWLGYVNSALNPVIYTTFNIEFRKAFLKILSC
Chain of Sodium-dependent dopamine transporter (Homo sapiens) (Q01959 whole entry): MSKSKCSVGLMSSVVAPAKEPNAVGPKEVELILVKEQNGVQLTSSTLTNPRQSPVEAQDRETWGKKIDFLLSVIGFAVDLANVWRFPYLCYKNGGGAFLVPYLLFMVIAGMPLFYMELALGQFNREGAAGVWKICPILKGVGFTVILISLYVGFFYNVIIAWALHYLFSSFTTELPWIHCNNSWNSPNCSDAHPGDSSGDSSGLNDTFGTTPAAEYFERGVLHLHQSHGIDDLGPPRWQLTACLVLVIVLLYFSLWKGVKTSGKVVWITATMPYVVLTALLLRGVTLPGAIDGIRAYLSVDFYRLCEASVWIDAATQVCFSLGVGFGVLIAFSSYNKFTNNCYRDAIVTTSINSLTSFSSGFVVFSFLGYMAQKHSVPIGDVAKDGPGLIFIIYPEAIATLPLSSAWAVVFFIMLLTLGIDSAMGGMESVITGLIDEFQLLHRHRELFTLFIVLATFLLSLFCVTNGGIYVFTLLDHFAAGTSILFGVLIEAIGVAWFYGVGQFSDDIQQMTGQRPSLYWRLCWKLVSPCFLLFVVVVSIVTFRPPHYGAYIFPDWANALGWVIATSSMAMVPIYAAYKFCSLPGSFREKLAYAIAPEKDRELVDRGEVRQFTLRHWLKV

For `CO[C@@H]1CN(C[C@H]2Cc3ccc(C#N)cc3C2)CC[C@H]1n1c(C(C)(C)O)nc2cc(C)c(F)cc21`, the affinity in data set [1], expressed as Ki, was 0.5 nM.
As for `CO[C@@H]1CN(C[C@H]2Cc3ccc(C#N)cc3C2)CC[C@H]1n1c(C(C)(C)O)nc2cc(C)ccc21`, the inhibition is 14% in data set [2]; 3% in [5]; -6% in data set [7]; 6% in [11]; 22% in [12]; 12% in data set [14]. Besides, the inhibition is 23% in [16] and 12% in data set [20]. Further, the Activity is recorded as -0.7% in [3], 28% in data set [6] and “Non-toxic” in data set [8]. In data set [4], this compound had a half-life of 1.9 h. In data set [1], the Ki was found to be 3 nM. Further, the Kp at 5 min in [9] came to 0.9. In data set [10], this compound came in with a clearance of 49.5 mL/min/kg. This compound also registered an EC50 in data set [13] of 17 nM. Moreover, in data set [13], the Efficacy is 85%. Also, the bioavailability in data set [15] was 47%. The compound also displayed an AUC in [17] of 4730 ng·h/mL. The compound also yielded a Cmax in data set [18] of 1300 ng/mL. The Vd in data set [19] stood at 3.6 L/kg.
`CO[C@H]1CN(CCCc2cccc(NC(=O)C3CC3)c2)CC[C@@H]1n1c(C)nc2cc(C)ccc21`: the inhibition in data set [5] was 11%; in [7], 32%; in [11] it was 67%; in data set [12], 52%; in data set [14], 15%; in data set [16], 16%. The inhibition in data set [20] was 61%. Besides, the affinity in data set [1], expressed as Ki, was 5.2 nM. This compound displayed an EC50 in data set [13] of 20 nM. The same compound had an Efficacy in data set [13] of 82%.
With `Cc1ccc2c(c1)nc(C)n2C1CCN(CCCc2cccc(NC(=O)C(C)C)c2)CC1`, the inhibition came out at 18% in data set [5]; 4% in [21]; 23% in data set [7]; 83% in data set [11]; 37% in data set [14]; 13% in [16]. In data set [20], the inhibition was 57%. The Ki in data set [1] was found to be 25 nM. The EC50 in data set [13] was 175 nM. Moreover, in [13], the Efficacy was determined as 96%.
Consider `CO[C@@H]1CN(C[C@@H]2Cc3ccc(NC(=O)C(C)C)cc3C2)CC[C@H]1n1c(C)nc2cc(C)ccc21`, for which, in data set [4], the half-life was 2.5 h. Further, the inhibition in data set [5] was determined as 3%; in data set [21], 3%; in data set [7], 10%; in data set [11], 32%; in data set [14], 7%; in data set [20] it was 1%. In [1], this compound registered a Ki of 31 nM. The Kp at 5 min in [9] worked out at 0.06. The clearance in data set [10] is 36.5 mL/min/kg. The compound further showed an EC50 in data set [13] of 40 nM. In data set [13], this compound showed an Efficacy of 74%. Also, the bioavailability in data set [15] worked out at 61%. Moreover, the AUC in data set [17] amounted to 8520 ng·h/mL. The compound also returned a Cmax in [18] of 1280 ng/mL. Besides, the Vd in data set [19] came to 14 L/kg.
For the compound `CO[C@@H]1CN(C[C@H]2Cc3ccc(Br)cc3C2)CC[C@H]1n1c(C)nc2cc(C)ccc21`, the inhibition was determined as 31% in [2]; 48% in data set [5]; 80% in [7]; 59% in data set [11]; 84% in data set [12]; 81% in [14]. Besides, the figures for the inhibition in data set [16] and in [20] were 54% and 69%, respectively. In data set [1], this compound yielded a Ki of 5 nM. The compound further came in with a half-maximal effective concentration (EC50) in [13] of 20 nM. For the same compound, the Efficacy in data set [13] was 92%.
For `CO[C@@H]1CN(C[C@H]2Cc3ccc(Br)cc3C2)CC[C@H]1n1c(C(C)(C)O)nc2cc(C)ccc21`, the inhibition in data set [2] is 17%; in [5], -8%; in data set [21], 14%; in [7] it was 68%; in [11], 28%; in data set [12] it was 79%. For the same compound, the inhibition worked out at 34% in data set [14] and 77% in data set [20]. In data set [1], this compound had a Ki of 10 nM. The compound also registered an EC50 in data set [13] of 30 nM. The Efficacy in data set [13] worked out at 98%.
Regarding `COC(=O)Nc1ccc2c(c1)C[C@@H](CN1CC[C@@H](n3c(C)nc4cc(C)ccc43)[C@H](OC)C1)C2`, the inhibition in data set [2] was 29%; in data set [5] it was 22%; in data set [21], 8%; in [7], 65%; in data set [11] it was 95%; in data set [12] it was 28%. For the same compound, the inhibition in [14] was determined as 14%; in data set [16] it was 10%; in data set [20], 64%. Further, the Ki in data set [1] worked out at 20 nM. In addition, in data set [13], it took 20 nM to reach a half-maximal effect (EC50). In [13], this compound had an Efficacy of 81%.
For `CO[C@@H]1CN(CC2Cc3ccccc3C2)CC[C@H]1n1c(C)nc2cc(C)ccc21`, the inhibition is 63% in data set [2]; 6% in data set [5]; -8% in data set [21]; 8% in [7]; 14% in data set [11]; 40% in data set [12]. For the same compound, the inhibition was 33% in [14], -2% in [16] and 24% in data set [20]. Also, in data set [1], the Ki worked out at 47 nM. Besides, the EC50 in [13] amounted to 69 nM. Moreover, the Efficacy in data set [13] was found to be 90%.

The values are drawn from ChEMBL document CHEMBL1141625, “Potent, selective MCH-1 receptor antagonists” (Bioorg Med Chem Lett, 2008).
